# Patent US8937073B2, “Disubstituted tetrahydrofuranyl compounds and their use as B1-receptor antagonists” (Boehringer Ingelheim International GmbH, priority 2010, dated 2015)
# Target: T1, cynomolgus B1 receptor (Macaca fascicularis, UniProt Q3BCU0)
# T1 construct: expressed in transfected cells; host or cells: CHO cells
# T1 sequence (Q3BCU0 1-352): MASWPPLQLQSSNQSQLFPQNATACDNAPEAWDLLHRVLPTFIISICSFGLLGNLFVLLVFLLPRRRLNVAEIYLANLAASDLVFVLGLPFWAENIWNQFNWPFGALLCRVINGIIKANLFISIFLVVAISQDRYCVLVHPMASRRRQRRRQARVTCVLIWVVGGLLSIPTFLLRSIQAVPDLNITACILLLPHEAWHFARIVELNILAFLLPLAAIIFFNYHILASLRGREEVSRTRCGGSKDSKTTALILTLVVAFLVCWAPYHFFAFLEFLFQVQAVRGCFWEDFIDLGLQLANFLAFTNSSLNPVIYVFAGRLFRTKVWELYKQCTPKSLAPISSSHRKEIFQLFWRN
# Assay: cynoBK1-receptor binding assay
# Conditions: homogenate of CHO cells expressing the cynomolgus B1 receptor; radioligand 0.5 to 5.0 nM kallidine (DesArg10,Leu9), [3,4-Prolyl-3,43H(N)]; 60-180 minutes at ambient temperature
# Description: Description of the Method of Binding the cynoBK1-Receptor
# CHO cells that express the cynomolgus B1 receptor are cultivated in “HAM′S F-12 Medium”. The medium is removed from confluent cultures, the cells are washed with PBS buffer, scraped off or detached using Versene and isolated by centrifuging. Then the cells are homogenised in suspension, the homogenate is centrifuged and resuspended. After the protein content has been determined 200 μl of the homogenate (50 to 250 μg protein/assay) are incubated for 60-180 minutes at ambient temperature with 0.5 to 5.0 nM kallidine (DesArg10,Leu9), [3,4-Prolyl-3,43H(N)] and increasing concentrations of the test substance in a total volume of 250 μl. The incubation is stopped by rapid filtration through GF/B glass fibre filters that have been pre-treated with polyethyleneimine (0.3%). The radioactivity bound to the protein is measured with a TopCount NXT. The radioactivity bound in the presence of 1.0 μM kallidine (DesArg10) is defined as non-specific binding. The concentration binding curve may be analysed using computer-aided non-linear curve fitting to determine the corresponding Ki value for the test substance.
# Test Results of the cynoBK1-Receptor Binding Assay: […]
row,Molecule,Ki
1,COc1ccc(Nc2ccc(CNC(=O)[C@]3(NC(=O)c4cn[nH]c(=O)c4)CCOC3)c(F)c2)c(C(F)(F)F)c1 [Example 21],1.6 nM
2,(S)-5-amino-N-(3-{[3-chloro-5-(4-methoxy-2-trifluoromethyl-phenylamino)-pyridin-2-yl-methyl]-carbamoyl}-tetrahydrofuran-3-yl)-nicotinamide [Example 6],18 nM
3,(S)-5-amino-N-{3-[4-(4-methoxy-2-trifluoromethyl-phenylamino)-benzylcarbamoyl]-tetrahydrofuran-3-yl}-nicotinamide [Example 4],3.6 nM
4,"(S)-6-oxo-1,6-dihydro-pyridazine-4-carboxylic acid-{3-[2-fluoro-4-(4-methoxy-2-trifluoromethyl-phenylamino)-benzylcarbamoyl]-tetrahydrofuran-3-yl}-amide [Example 1]",1 nM
5,(S)-5-amino-N-(3-{[3-fluoro-5-(4-methoxy-2-trifluoromethyl-phenylamino)-pyridin-2-ylmethyl]-carbamoyl}-tetrahydrofuran-3-yl)-nicotinamide [Example 3],4.7 nM
